What is called IC50 is the concentration that inhibits the measured activity by half.

The assay concerns the target TSPO (translocator protein (18 kDa)) (Oryctolagus cuniculus, UniProt G1SMF7). The assay can be described thus: [3H]-PK11195 radioligand displacement, size exclusion desalting plates. The following applies: 1.2 nM [3H]-PK11195, 50 mM Tris-HCl pH 7.4, 30 min, room temperature; isolated mitochondria. The class given is binding.

Sequence of TSPO (translocator protein (18 kDa)) (G1SMF7 229-397): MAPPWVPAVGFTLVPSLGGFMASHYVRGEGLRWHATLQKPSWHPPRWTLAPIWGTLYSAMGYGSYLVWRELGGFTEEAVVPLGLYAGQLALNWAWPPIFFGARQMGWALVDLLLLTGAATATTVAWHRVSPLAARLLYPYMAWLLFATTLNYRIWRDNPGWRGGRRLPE

Consider `CCN(CC)C(=O)Cc1c(-c2ccc(OCCn3cc(CO)nn3)cc2)nn2c(C)cc(C)nc12` [DPA-triazole], for which the IC50 came out at 100 ± 20 nM.
With `CCC(C)N(C)C(=O)c1cc2ccccc2c(-c2ccccc2Cl)n1` (centres unmarked) [PK11195] the figure was 5 ± 0.5 nM.

Source of the values: PMC8022998 (Biomacromolecules, 2020).
